Eight compounds from ChEMBL document CHEMBL1201862, “PubChem BioAssay data set” (2004) can be followed below.

Calls of active or inactive are those of the source.

One test deals with Mu-type opioid receptor (Homo sapiens, UniProt P35372). The experiment in a line: Counterscreen for agonists of heterodimerization of the mu 1 (OPRM1) and delta 1 (OPRD1) opioid receptors: Luminescence-based cell-based high throughput dose response assay to identify agonists of OPRM1 homodimerization. In kind it is functional.
Test [1] concerns the target 5-hydroxytryptamine receptor 5A (Homo sapiens, UniProt P47898). Description: Counterscreen for agonists of OPRM1-OPRD1 heterodimerization: luminescence-based cell-based high throughput dose response assay to identify agonists of 5-hydroxytryptamine (serotonin) 5A receptor (HTR5A). [Related pubchem assays (depositor defined):AID504326, AID504355, AID504692, AID504904, AID504905]. In kind it is functional.

Test [2] has as its target Delta-type opioid receptor (Homo sapiens, UniProt P41143). Description: Counterscreen for agonists of heterodimerization of the mu 1 (OPRM1) and delta 1 (OPRD1) opioid receptors: Luminescence-based cell-based high throughput dose response assay to identify agonists of OPRD1 homodimerization. [Related pubchem assays (depositor defined):AID504326, AID504355, AID504692, AID504904, AID504905]. In kind it is functional.

Another test addresses X-box-binding protein 1 (Homo sapiens, UniProt P17861). In kind it is functional, Cricetulus griseus.
In test [3] the target is T1, Neuropeptides B/W receptor type 1 (Homo sapiens, UniProt P48145).
T1 sequence (P48145 whole entry): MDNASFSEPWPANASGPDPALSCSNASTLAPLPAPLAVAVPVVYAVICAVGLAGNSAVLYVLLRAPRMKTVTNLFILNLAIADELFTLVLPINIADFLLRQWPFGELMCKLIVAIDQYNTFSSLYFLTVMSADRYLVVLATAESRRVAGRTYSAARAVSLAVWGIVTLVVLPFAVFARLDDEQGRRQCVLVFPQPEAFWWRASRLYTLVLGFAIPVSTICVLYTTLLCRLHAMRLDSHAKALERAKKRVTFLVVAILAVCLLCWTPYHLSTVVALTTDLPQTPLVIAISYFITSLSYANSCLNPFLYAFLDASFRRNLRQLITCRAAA
Description: human NPBW1 receptor blockade, IC50 – cell-based, fluorescence, dose response, late-stage follow-up (AID 463251). In kind it is functional.

The target in test [4] is Melanin-concentrating hormone receptor 1 (Homo sapiens, UniProt Q99705). The experiment in a line: Late-stage fluorescence-based counterscreen for antagonists of the G-protein coupled receptor 7 (GPR7): cell-based dose response assay to identify antagonists of the melanin-concentrating hormone receptor 1 (MCHR1). [Related pubchem assays (depositor defined):AID1861, AID1880, AID1952, AID2148, AID2251, AID2257, AID485339]. In kind it is functional.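 Note: stimulated with 30 nM MCH peptide agonist.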

In a further test the target is T2, Caspase-7 (Homo sapiens, UniProt P55210).
T2 sequence (P55210 whole entry): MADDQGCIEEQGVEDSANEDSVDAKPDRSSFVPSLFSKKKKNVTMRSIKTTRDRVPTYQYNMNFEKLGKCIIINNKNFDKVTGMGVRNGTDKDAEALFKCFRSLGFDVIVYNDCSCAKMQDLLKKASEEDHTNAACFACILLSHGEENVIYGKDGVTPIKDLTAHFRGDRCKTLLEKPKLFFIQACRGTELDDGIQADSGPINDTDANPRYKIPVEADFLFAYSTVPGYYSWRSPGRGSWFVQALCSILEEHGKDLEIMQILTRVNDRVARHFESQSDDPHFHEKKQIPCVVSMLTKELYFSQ
Description: potency of procaspase-7 enzyme activation – biochemical, absorbance, human, dual procaspase-3/-7 activator project, dose response (AID 504330).

The target in a further test is T3, Caspase-3 (Homo sapiens, UniProt P42574).
T3 sequence (P42574 whole entry): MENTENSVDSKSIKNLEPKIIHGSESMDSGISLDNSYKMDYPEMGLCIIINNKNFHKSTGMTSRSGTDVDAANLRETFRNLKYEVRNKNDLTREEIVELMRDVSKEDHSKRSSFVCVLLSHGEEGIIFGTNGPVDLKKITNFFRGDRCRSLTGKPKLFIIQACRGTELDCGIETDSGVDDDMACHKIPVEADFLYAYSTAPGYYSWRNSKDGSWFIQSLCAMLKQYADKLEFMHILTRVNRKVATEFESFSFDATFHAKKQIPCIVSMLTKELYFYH
The experiment in a line: activators of human procaspase-3 D3A mutant – biochemical, absorbance, PC-3 D3A mutant, counter-screen for dual procaspase-3/7 activator project, dose response (AID 504328).

The next test deals with Beta-galactosidase (Escherichia coli, UniProt Q8VNN2). The experiment in a line: detection-enzyme interference by beta-gal modulators – biochemical, E. coli enzyme, set 3, artefact control for CCR6 antagonist project, dose response (AID 504712). In kind it is functional.
Test [5] addresses Heat shock protein HSP 90-alpha (Homo sapiens, UniProt P07900). In kind it is functional, organism-based.
Test [6] concerns the target Eukaryotic translation initiation factor 4E (Mus musculus, UniProt P63073). Description: blockers of eIF4G binding by eIF4E – biochemical, TR-FRET, dose response (AID 855).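 Note: potency for disrupting eIF4E binding to eIF4GI seen as loss of FRET.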 In kind it is functional.
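Throughout, for Absolute IC50 (XBP1): confirmatory dose-response counter-screen serving a CHOP assay.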

Chain of Melanin-concentrating hormone receptor 1 (Q99705 whole entry): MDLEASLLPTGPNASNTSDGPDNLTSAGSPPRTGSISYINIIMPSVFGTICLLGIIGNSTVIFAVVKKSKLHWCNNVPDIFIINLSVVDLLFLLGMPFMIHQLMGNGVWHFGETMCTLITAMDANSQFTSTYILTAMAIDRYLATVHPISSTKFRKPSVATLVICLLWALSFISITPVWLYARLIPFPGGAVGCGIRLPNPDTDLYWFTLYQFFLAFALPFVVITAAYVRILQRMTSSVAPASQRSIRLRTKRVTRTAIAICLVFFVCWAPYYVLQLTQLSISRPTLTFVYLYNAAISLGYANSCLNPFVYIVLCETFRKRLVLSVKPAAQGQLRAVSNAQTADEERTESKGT
Chain of Beta-galactosidase (Q8VNN2 whole entry): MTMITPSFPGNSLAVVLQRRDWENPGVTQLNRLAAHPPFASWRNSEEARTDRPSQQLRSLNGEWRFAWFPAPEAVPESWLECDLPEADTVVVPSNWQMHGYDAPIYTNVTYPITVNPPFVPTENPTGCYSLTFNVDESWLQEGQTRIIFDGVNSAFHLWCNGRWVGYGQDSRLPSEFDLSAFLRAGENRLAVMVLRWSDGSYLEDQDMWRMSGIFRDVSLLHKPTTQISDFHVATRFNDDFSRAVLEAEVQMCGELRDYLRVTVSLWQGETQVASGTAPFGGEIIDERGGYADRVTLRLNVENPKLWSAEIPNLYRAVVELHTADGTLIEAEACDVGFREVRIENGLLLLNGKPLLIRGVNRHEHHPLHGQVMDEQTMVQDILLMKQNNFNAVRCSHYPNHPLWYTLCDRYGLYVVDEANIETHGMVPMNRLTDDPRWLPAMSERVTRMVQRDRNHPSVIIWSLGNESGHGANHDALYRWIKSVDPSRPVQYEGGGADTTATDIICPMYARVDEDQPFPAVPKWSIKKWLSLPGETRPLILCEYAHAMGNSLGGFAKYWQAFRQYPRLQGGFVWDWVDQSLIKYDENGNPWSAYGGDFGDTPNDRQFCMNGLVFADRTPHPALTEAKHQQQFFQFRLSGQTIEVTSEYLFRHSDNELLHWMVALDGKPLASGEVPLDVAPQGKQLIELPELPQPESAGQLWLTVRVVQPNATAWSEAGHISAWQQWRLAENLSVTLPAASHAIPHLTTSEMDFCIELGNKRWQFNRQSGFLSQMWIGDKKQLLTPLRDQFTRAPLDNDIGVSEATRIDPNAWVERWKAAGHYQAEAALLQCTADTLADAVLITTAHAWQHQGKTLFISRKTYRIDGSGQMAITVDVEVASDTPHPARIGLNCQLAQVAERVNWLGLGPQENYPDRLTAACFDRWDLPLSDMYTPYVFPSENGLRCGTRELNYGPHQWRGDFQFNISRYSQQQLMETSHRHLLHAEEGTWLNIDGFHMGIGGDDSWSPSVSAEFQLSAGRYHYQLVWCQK
Chain of X-box-binding protein 1 (P17861 whole entry): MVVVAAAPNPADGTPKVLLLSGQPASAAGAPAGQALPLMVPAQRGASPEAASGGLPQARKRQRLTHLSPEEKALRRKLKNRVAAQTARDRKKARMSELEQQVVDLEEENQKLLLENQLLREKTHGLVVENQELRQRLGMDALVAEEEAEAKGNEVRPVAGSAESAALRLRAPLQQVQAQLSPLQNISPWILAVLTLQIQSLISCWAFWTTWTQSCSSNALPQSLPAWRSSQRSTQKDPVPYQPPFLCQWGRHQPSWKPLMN
Chain of Eukaryotic translation initiation factor 4E (P63073 whole entry): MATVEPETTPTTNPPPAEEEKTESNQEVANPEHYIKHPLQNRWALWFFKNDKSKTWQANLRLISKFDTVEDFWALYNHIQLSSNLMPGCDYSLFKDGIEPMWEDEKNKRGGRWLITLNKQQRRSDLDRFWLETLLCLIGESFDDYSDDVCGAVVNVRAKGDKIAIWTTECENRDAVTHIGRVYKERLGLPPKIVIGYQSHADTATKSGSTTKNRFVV
Chain of Mu-type opioid receptor (P35372 whole entry): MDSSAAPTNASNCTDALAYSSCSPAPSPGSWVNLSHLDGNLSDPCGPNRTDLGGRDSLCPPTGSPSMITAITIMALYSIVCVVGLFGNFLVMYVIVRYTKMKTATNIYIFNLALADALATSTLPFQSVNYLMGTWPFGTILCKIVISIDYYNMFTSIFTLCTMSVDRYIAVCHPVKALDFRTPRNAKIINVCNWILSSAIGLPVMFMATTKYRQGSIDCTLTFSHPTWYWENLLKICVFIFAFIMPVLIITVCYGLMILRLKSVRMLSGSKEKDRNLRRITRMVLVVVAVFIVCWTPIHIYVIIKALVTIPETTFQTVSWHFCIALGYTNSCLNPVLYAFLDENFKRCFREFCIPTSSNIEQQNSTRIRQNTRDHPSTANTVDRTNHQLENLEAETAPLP
Chain of Delta-type opioid receptor (P41143 whole entry): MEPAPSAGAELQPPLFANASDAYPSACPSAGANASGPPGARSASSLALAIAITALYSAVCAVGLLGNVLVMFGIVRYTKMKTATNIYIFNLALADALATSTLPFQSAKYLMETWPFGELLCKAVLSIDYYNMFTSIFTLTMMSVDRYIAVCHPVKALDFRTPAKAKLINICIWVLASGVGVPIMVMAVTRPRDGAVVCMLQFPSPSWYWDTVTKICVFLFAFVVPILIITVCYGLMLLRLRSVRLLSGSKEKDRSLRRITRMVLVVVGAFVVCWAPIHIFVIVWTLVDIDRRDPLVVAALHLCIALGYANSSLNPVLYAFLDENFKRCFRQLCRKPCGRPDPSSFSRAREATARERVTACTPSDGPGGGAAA
Chain of 5-hydroxytryptamine receptor 5A (P47898 whole entry): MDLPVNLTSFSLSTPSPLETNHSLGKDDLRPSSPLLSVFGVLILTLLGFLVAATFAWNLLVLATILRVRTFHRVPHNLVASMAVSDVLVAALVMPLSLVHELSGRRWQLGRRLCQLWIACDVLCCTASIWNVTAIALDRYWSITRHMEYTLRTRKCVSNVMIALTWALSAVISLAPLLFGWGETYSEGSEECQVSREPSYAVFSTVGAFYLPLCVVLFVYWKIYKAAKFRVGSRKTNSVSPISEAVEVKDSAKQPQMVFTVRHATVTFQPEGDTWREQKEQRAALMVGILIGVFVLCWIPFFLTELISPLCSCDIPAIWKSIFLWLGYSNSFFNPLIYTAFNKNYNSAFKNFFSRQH

For the compound `COc1cc(C(=O)OC(C)C(=O)NCC2CCCCC2)cc(NC(=O)c2ccco2)c1OC` (stereo unspecified), the EC50 (on Mu-type opioid receptor; in test [1]; in test [2]) was > 92.5 µM (inactive) throughout. The “Absolute IC50 (XBP1)” value at X-box-binding protein 1 was determined as 10 µM.
Take `O=C(C1CCCCN1Cc1c(F)cccc1Cl)N1CCN(c2ccc([N+](=O)[O-])cc2)CC1` (stereo unspecified): the IC50 in test [3] and in test [4] was 3.3 µM (active) each time.
As to `O=C(Nc1ccc(Cc2ccncc2)cc1)C1CCC(N2C(=O)C3C4C=CC(C5CC45)C3C2=O)CC1` (stereo unspecified), the EC50 on Caspase-7 and on Caspase-3 was > 85.3 µM (inactive) throughout.
Turning to `CC(C)Oc1cccc(C(=O)NC(=S)Nc2cccc(C(F)(F)F)c2)c1`, the IC50 on Beta-galactosidase was > 66.6 µM (inactive).
As for `O=C(Oc1ccc(Cl)c2cccnc12)c1cccnc1`, the IC50 on Beta-galactosidase was > 66.6 µM (inactive). In addition, the AC50 in [5] is 8.18 µM (active).
Consider `O=c1c(Oc2ccc(O)cc2)c(Cl)cnn1-c1ccc(F)cc1`, for which the IC50 is 8.7 µM (active) in [3] and 8 µM (active) in test [4].
`CCOc1ccc(-n2c(-c3ccco3)n[nH]c2=S)cc1`: the IC50 in test [6] was > 64 µM (inactive).
Consider `COC(=O)C1=NN(c2ccc(Cl)cc2)C2C(=O)N(c3ccccc3OC)C(=O)C12` (stereo unspecified), for which the EC50 at Caspase-7 and at Caspase-3 was > 85.3 µM (inactive) in each case.
